{
  "source": "patent US20250127799A1",
  "about": "“DRUG CONJUGATES FOR BONE MARROW PROTECTION” (priority 2023, published 2025)",
  "key": {"[1]": {"molecular_target": "matrix metalloproteinase 9 (MMP9) (Homo sapiens, UniProt P14780)", "sequence (P14780 94-707, species assumed)": "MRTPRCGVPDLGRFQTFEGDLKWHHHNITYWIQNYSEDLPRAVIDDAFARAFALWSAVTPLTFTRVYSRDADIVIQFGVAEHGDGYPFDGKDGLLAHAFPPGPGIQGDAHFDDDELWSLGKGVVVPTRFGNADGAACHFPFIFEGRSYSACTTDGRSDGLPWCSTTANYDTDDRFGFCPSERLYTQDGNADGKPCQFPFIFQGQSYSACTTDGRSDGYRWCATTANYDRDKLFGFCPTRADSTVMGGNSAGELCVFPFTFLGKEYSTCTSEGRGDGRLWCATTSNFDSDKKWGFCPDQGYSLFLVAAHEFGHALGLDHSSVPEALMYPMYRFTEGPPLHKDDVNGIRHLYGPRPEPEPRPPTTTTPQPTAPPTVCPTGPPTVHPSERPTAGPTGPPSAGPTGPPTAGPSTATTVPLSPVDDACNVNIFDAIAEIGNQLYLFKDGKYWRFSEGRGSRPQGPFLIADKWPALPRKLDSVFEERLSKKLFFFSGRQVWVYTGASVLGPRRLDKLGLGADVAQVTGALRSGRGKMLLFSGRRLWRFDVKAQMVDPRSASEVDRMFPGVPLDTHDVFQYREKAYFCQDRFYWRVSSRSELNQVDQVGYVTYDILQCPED", "experiment": "In vitro matrix metalloproteinase-based conjugate cleavage", "format": "biochemical", "conditions": "isolated enzyme, MMP9, 37° C., up to 20 h, read-out: T1/2 of cleavage (converted)", "description": "In this exemplary representative cleavage experiment, a 90 μL stock solution of protective drug conjugate (1 mg/mL) was mixed with 2 μL of matrix metalloproteinase 9 (MMP9) (10 unit/μL) and 8.2 μL of 50 mM CaCl2 solution, followed by incubation at 37° C. for up to 20 h. A 10 μL sample was taken at 0.3, 1, 2, 4, 9, or 20 h for the HPLC analysis. Three conjugates having different peptide sequences (Conjugates 1-3) were used in this test: Conjugate 1-peptide sequence of CPLSLYAL (SEQ ID NO: 65); Conjugate 2-peptide sequence of CPLSLYSL (SEQ ID NO: 66); and Conjugate 3-peptide sequence of CPLGLAL (SEQ ID NO: 67). The concentrations of the conjugate residual in samples were normalized and presented as cleavage ratios."}, "CD2F1 male mice": {"tested_on": "CD2F1 male mice", "experiment": "In vivo radioprotective effects: 30-day survival after Cobalt-60 gamma irradiation", "conditions": "24 h before 9.2 Gy", "description": "(§1) CD2F1 male mice (N=16) were subcutaneously (sc) injected with a single dose of two different conjugates. For one protective drug conjugate (Conjugate 1), the tested doses were 200, 400, and 800 mg/kg. The structure of Conjugate 1 included amifostine as the protective drug, alendronate as the bone-targeting ligand, and a protease-cleavable peptide having the sequence of CKPLGLWAL (SEQ ID NO: 33) with acetylation at the N-terminus (e.g., AcCKPLGLWAL; SEQ ID NO: 74). […] The irradiated mice were monitored for survival for 30 days post-irradiation. […] For the vehicle control group, the mortalities of mice occurred during 8 to 17 days post-irradiation, and the final survival rate was 6.25% (1 out of 16 survived), indicating significant mortality by gamma-irradiation.\nFor another protective drug conjugate (Conjugate 2), the tested doses were 250, 500, 600, and 700 mg/kg, and the irradiation was conducted at 24 h post-drug administration. The structure of Conjugate 2 included amifostine as the protective drug, alendronate as the bone-targeting ligand, and a protease-cleavable peptide having the sequence of CPLGLYAL (SEQ ID NO: 29) with acetylation at the N-terminus (e.g., AcCPLGLYAL; SEQ ID NO: 76).\nas §1, with “a” for “two different conjugates. For one”, “1), and” for “1),”, “250, 300,” for “200, 400,”, “350” for “800”, “0% (0” for “6.25% (1”\nas §1, with “CD2F1 male mice (N=16) were subcutaneously (sc) injected CD2F1” for “CD2F1”, “a” for “two different conjugates. For one”, “1), and” for “1),”, “250, 300,” for “200, 400,”, “350” for “800”\nCD2F1 male mice (N=16) were subcutaneously (sc) injected CD2F1 male mice (N=16) were subcutaneously (sc) injected with a single dose of a protective drug conjugate (Conjugate 1), and the tested doses were 50, 100, and 200 mg/kg. The structure of Conjugate 1 included amifostine as the protective drug, alendronate as the bone-targeting ligand, and a protease-cleavable peptide having the sequence of CKPLGLWAL (SEQ ID NO: 33) with acetylation at the N-terminus (e.g., AcCKPLGLWAL; SEQ ID NO: 74). […] The irradiated mice were monitored for survival for […] post-irradiation. […] For the vehicle control group, the mortalities of mice occurred during 8 to 17 days post-irradiation, and the final survival rate was 0% (0 out of 16 survived), indicating significant mortality by gamma-irradiation.\nCD2F1 male mice (N=16) were subcutaneously (sc) injected CD2F1 male mice (N=16) were subcutaneously (sc) injected with a single dose of a protective drug conjugate, i.e., Conjugate 3. The tested doses were 250, 300, and 350 mg/kg. […]"}},
  "note": "Peptide text beside a SMILES is read from it. * marks the point of attachment. X1 = O=C(CCCCCN1C(=O)CC(*)C1=O)NCCCC(O)(P(=O)(O)O)P(=O)(O)O; X2 = O=P(O)(O)SCCNCCCN*",
  "data": [
    {"smiles": "CC(=O)N[C@@H](CSC1CC(=O)N(CCCCCC(=O)NCCCC(O)(P(=O)(O)O)P(=O)(O)O)C1=O)C(=O)N1CCC[C@H]1C(=O)N[C@@H](CC(C)C)C(=O)NCC(=O)N[C@@H](CC(C)C)C(=O)N[C@@H](Cc1ccc(O)cc1)C(=O)N[C@@H](C)C(=O)N[C@@H](CC(C)C)C(=O)NCCCNCCSP(=O)(O)O", "note": "(some centres unmarked) [Conjugate 2] (Ac-C(X1)PLGLYAL-X2)", "values": [
      {"measurement": "half-life at 0.898 mg/mL", "setting": "[1]", "value": "~7.5", "unit": "h"},
      {"measurement": "30-day survival rate", "setting": "CD2F1 male mice; 250 mg/kg sc", "value": 68.75, "unit": "%"},
      {"measurement": "30-day survival rate", "setting": "CD2F1 male mice; 500 mg/kg sc", "value": 75, "unit": "%"},
      {"measurement": "30-day survival rate", "setting": "CD2F1 male mice; 600 mg/kg sc", "value": 93.75, "unit": "%"},
      {"measurement": "30-day survival rate", "setting": "CD2F1 male mice; 700 mg/kg sc", "value": 100, "unit": "%"}
    ]}
  ]
}
